# Test results as given in US20250179059A1 (The Regents of the University of California, priority 2021, published 2025).
# pIC50: −log10 of the molar value.
# Columns and labels:
# [1] = target: T1, human BRD4 bromodomain II (Homo sapiens, UniProt O60885); assay: Bromodomain binding assay (AlphaScreen), BRD4 BDII; conditions: AlphaScreen assay, Table C2; read-out: BRD4 BDII IC50
# T1 construct: human BRD4 bromodomain II [based on Genbank NM_058243, residues 349-460]; host or cells: E. coli
# Outline: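 E. coli-expressed N-terminal His6-tagged human BRD4 BDII (residues 349-460) or BDI (residues 44-170) was preincubated 30 min at room temperature with compound (10-point, 3-fold) in pH 7.5 HEPES buffer, 1% DMSO. Displacement of biotinylated tetra-acetylated H4 1-21 peptide was read by AlphaScreen, and IC50 came from curve fitting.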
# [2] = system: human SKM-1 acute myeloid leukemia cells; assay: SKM-1 antiproliferation cell-based assay (ATPlite); conditions: Homo sapiens
# Method: The cell-based assay indirectly measures cell density (and therefore proliferation and/or survival) by detecting total ATP concentration in a homogeneous format. Briefly, human SKM-1 acute myeloid leukemia cells (Leibniz Institute DSMZ #ACC 547) proliferating in log phase are collected by centrifugation, re-suspended in culture media (RPMI 1640/15% FBS/100 U/mL penicillin/100 μg/mL streptomycin) and diluted to 34722 cells/mL in media after counting. Then 180 μL cells are plated per well into a 96-well tissue-culture treated, clear bottom plate (Coming #3603). A 96-well compound plate (Corning #3357) is then generated by serial dilution of compounds into DMSO over nine concentrations and adding separate negative (DMSO) and positive control (reference compound) wells. Each compound concentration is tested in triplicate. First, 1 μL from each well of the compound plate is added to 99 μL culture media in an intermediate plate and mixed by pipetting. Then 20 μL of the diluted compounds in media are added to the assay plate containing the cells. The assay plate is maintained for 4 days in a standard cell culture incubator. At the end of the incubation period, 100 μL ATPlite Istep (PerkinElmer) is added to the assay plate wells, and the resulting luminescence is detected using an Infinite M1000 or a Spark multimode plate reader (Tecan). Data analysis is performed in Prism (GraphPad Software). For curve fitting, a non-linear regression, variable slope equation is used to calculate cellular IC50s.
# [3] = SKM-1, 96 h, SKM-1 antiproliferation assay, 4 days, Table C2
# [4] = SKM-1, SKM-1 antiproliferation assay
pIC50 [1],"GI50 [2, 3]","GI50 [2, 4]",SMILES
8.00 to 9.00,300 to 3000 nM,,"CC(=O)Nc1c(F)cc(-c2cccc(-c3cc(N4CCNCC4)no3)c2O)cc1OC1CC1 [Example 135, N-(3-cyclopropoxy-5-fluoro-2′-hydroxy-3′-(3-(piperazin-1-yl)isoxazol-5-yl)-[1,1′-biphenyl]-4-yl)acetamide 2,2,2-trifluoroacetate]"
8.00 to 9.00,300 to 3000 nM,,"CN1CCN(c2ccc(-c3cccc(-c4cccc(N5CCNCC5)c4)c3O)cc2F)C1=O [Example 164, 1-(3-Fluoro-2′-hydroxy-3″-(piperazin-1-yl)-[1,1′:3′,1″-terphenyl]-4-yl)-3-methylimidazolidin-2-one]"
8.00 to 9.00,300 to 3000 nM,,"O=C1CCCN1c1ccc(-c2cccc(-c3cccc(N4CCNCC4)c3)c2O)cc1F [Example 173, 1-(3-fluoro-2′-hydroxy-3″-(piperazin-1-yl)-[1,1′:3′,1″-terphenyl]-4-yl)pyrrolidin-2-one]"
8.00 to 9.00,300 to 3000 nM,,"CC(=O)Nc1ccc(-c2cc(F)cc(-c3cccc(N4CCNCC4)c3)c2O)cc1F [Example 180, N-(3,5′-difluoro-2′-hydroxy-3″-(piperazin-1-yl)-[1,1′:3′,1″-terphenyl]-4-yl)acetamide]"
8.00 to 9.00,300 to 3000 nM,,"CC(=O)Nc1ccc(-c2cccc(-c3ccc(F)c(N4CCNCC4)c3)c2O)cc1F [Example 182, N-(3,4″-difluoro-2′-hydroxy-3(piperazin-1-yl)-[1,1′:3′,1″-terphenyl]-4-yl)acetamide]"
8.00 to 9.00,30 to 300 nM,,"CC(=O)Nc1ccc(-c2cccc(-c3cncc(N4CCNCC4)c3)c2O)cc1F [Example 189, N-(3-fluoro-2′-hydroxy-3′-(5-(piperazin-1-yl)pyridin-3-yl)-[1,1′-biphenyl]-4-yl)acetamide]"
8.00 to 9.00,300 to 3000 nM,,"CC(=O)Nc1ccc(-c2cccc(-c3cccc(N4CCN[C@H](C)C4)c3)c2O)cc1F [Example 193, (R)-N-(3-fluoro-2′-hydroxy-3″-(3-methylpiperazin-1-yl)-[1,1′:3′,1″-terphenyl]-4-yl)acetamide]"
8.00 to 9.00,300 to 3000 nM,,"CC(=O)Nc1ccc(-c2cccc(-c3ccnc(N4CCC(O)C4)c3)c2O)cc1F (stereo not drawn) [Example 199, N-(3-fluoro-2′-hydroxy-3′-(2-(3-hydroxypyrrolidin-1-yl)pyridin-4-yl)-[1,1′-biphenyl]-4-yl)acetamide]"
8.00 to 9.00,30 to 300 nM,,"CC(=O)Nc1ccc(-c2cccc(-c3cccc(N4CC5CNC(C5)C4)c3)c2O)cc1F (stereo not drawn) [Example 206, N-(3″-(3,6-diazabicyclo[3.2.1]octan-3-yl)-3-fluoro-2′-hydroxy-[1,1′:3′,1″-terphenyl]-4-yl)acetamide]"
8.00 to 9.00,30 to 300 nM,,"O=C1CCCN1c1ccc(-c2cccc(-c3ccnc(N4CCNCC4)c3)c2O)cc1Cl [Example 209, 1-(3-chloro-2′-hydroxy-3′-(2-(piperazin-1-yl)pyridin-4-yl)-[1,1′-biphenyl]-4-yl)pyrrolidin-2-one]"
,,0.3 to 30 nM,"COc1ncc(-c2nc(F)cc(-c3ccc(-n4ccn(C)c4=O)c(Cl)c3)c2O)cc1N1CCN(C(C)(C)C)CC1 [Example 1044, 1-(4-(5′-(4-(tert-Butyl)piperazin-1-yl)-6-fluoro-3-hydroxy-6′-methoxy-[2,3′-bipyridin]-4-yl)-2-chlorophenyl)-3-methyl-1H-imidazol-2(3H)-one]"
,,30 to 300 nM,"CC(C)(C)N1CCN(c2cccc(-c3cc(F)cc(-c4ccc(N5CCCC5=O)c(Cl)c4)c3O)c2)CC1 [Example 1045, 1-(3″-(4-(tert-Butyl)piperazin-1-yl)-3-chloro-5′-fluoro-2′-hydroxy-[1,1′:3′,1″-terphenyl]-4-yl)pyrrolidin-2-one]"
,,0.3 to 30 nM,"Cc1cc(-c2ccc(N3CCN(C)C3=O)c(Cl)c2)c(O)c(-c2cccc(N3CCN(C(C)(C)C)CC3)c2)n1 [Example 1046, 1-(4-(2-(3-(4-(tert-Butyl)piperazin-1-yl)phenyl)-3-hydroxy-6-methylpyridin-4-yl)-2-chlorophenyl)-3-methylimidazolidin-2-one]"
,,0.3 to 30 nM,"[2H]C([2H])([2H])n1ccn(-c2ccc(-c3cc(F)nc(-c4cccc(N5CCN(C(C)(C)C)CC5)c4)c3O)cc2Cl)c1=O [Example 1047, 1-(4-(2-(3-(4-(tert-butyl)piperazin-1-yl)phenyl)-6-fluoro-3-hydroxypyridin-4-yl)-2-chlorophenyl)-3-(methyl-d3)-1,3-dihydro-2H-imidazol-2-one]"
,,30 to 300 nM,"Cc1cc(-c2ccc(-n3ccn(C)c3=O)c(Cl)c2)c(O)c(-c2ccc(=O)n(C3CCN(C(C)C)CC3)c2)n1 [Example 1048, 4-(3-Chloro-4-(3-methyl-2-oxo-2,3-dihydro-1H-imidazol-1-yl)phenyl)-3-hydroxy-1′-(1-isopropylpiperidin-4-yl)-6-methyl-[2,3′-bipyridin]-6′(1′H)-one]"
,,30 to 300 nM,"Cn1ccn(-c2ccc(-c3cc(F)nc(-c4cnc(O)c(N5CCN(C(C)(C)C)CC5)c4)c3O)cc2Cl)c1=O [Example 1049, 1-(4-(5′-(4-(tert-butyl)piperazin-1-yl)-6-fluoro-3,6′-dihydroxy-[2,3′-bipyridin]-4-yl)-2-chlorophenyl)-3-methyl-1,3-dihydro-2H-imidazol-2-one]"
,,0.3 to 30 nM,"Cc1cc(-c2cc(F)nc(-c3cccc(N4CCN(C(C)(C)C)CC4)c3)c2O)ccc1-n1ccn(C)c1=O [Example 1050, 1-(4-(2-(3-(4-(tert-butyl)piperazin-1-yl)phenyl)-6-fluoro-3-hydroxypyridin-4-yl)-2-methylphenyl)-3-methyl-1,3-dihydro-2H-imidazol-2-one]"
,,0.3 to 30 nM,"CC1=CCN(c2ccc(-c3cc(F)cc(-c4cccc(N5CCN(C(C)(C)C)CC5)c4)c3O)cc2Cl)C1=O [Example 1051, 1-(3″-(4-(tert-Butyl)piperazin-1-yl)-3-chloro-5′-fluoro-2′-hydroxy-[1,1′:3′,1″-terphenyl]-4-yl)-3-methyl-1,5-dihydro-2H-pyrrol-2-one]"
,,0.3 to 30 nM,"CC(C)(C)N1CCN(c2cccc(-c3cc(F)cc(-c4ccc(-n5ccsc5=O)c(Cl)c4)c3O)c2)CC1 [Example 1052, 3-(3″-(4-(tert-butyl)piperazin-1-yl)-3-chloro-5′-fluoro-2′-hydroxy-[1,1′:3′,1″-terphenyl]-4-yl)thiazol-2(3H)-one]"
,,0.3 to 30 nM,"Cc1cc(-c2ccc(-n3ccsc3=O)c(Cl)c2)c(O)c(-c2cccc(N3CCN(C(C)(C)C)CC3)c2)n1 [Example 1053, 3-(4-(2-(3-(4-(tert-butyl)piperazin-1-yl)phenyl)-3-hydroxy-6-methylpyridin-4-yl)-2-chlorophenyl)thiazol-2(3H)-one]"
,,0.3 to 30 nM,"Cn1ccn(-c2ccc(-c3cc(F)nc(-c4cccc(N5CCN(C(C)(C)C)CC5)c4)c3O)cc2F)c1=O [Example 1054, 1-(4-{2-[3-(4-tert-Butyl-piperazin-1-yl)-phenyl]-6-fluoro-3-hydroxy-pyridin-4-yl}-2-fluoro-phenyl)-3-methyl-1,3-dihydro-imidazol-2-one]"
,,0.3 to 30 nM,"CC1=CCN(c2ccc(-c3cc(C)nc(-c4cccc(N5CCN(C(C)(C)C)CC5)c4)c3O)cc2Cl)C1=O [Example 1055, 1-(4-(2-(3-(4-(tert-butyl)piperazin-1-yl)phenyl)-3-hydroxy-6-methylpyridin-4-yl)-2-chlorophenyl)-3-methyl-1,5-dihydro-2H-pyrrol-2-one]"
,,0.3 to 30 nM,"Cn1ccn(-c2ccc(-c3cc(F)nc(-c4cccc(N5CCN(C(C)(C)C)CC5)c4)c3N)cc2Cl)c1=O [Example 1056, 1-(4-(3-amino-2-(3-(4-(tert-butyl)piperazin-1-yl)phenyl)-6-fluoropyridin-4-yl)-2-chlorophenyl)-3-methyl-1,3-dihydro-2H-imidazol-2-one]"
,,0.3 to 30 nM,"Cn1ccn(-c2ccc(-c3nc(F)cc(-c4cccc(N5CCN(C(C)(C)C)CC5)c4)c3N)cc2Cl)c1=O [Example 1057, 1-(4-(3-amino-4-(3-(4-(tert-butyl)piperazin-1-yl)phenyl)-6-fluoropyridin-2-yl)-2-chlorophenyl)-3-methyl-1,3-dihydro-2H-imidazol-2-one]"
,,0.3 to 30 nM,"Cn1ccn(-c2ccc(-c3cc(F)cc(-c4cccc(N5CCN(C(C)(C)C)CC5)c4)c3N)cc2Cl)c1=O [Example 1058, 1-[2′-Amino-3-(4-tert-butyl-piperazin-1-yl)-3″-chloro-5′-fluoro-[1,1′;3′,1″ ]terphenyl-4″-yl]-3-methyl-1,3-dihydro-imidazol-2-one]"
,,0.3 to 30 nM,"CCc1ncc(-c2nc(F)cc(-c3ccc(-n4ccn(C)c4=O)c(Cl)c3)c2O)cc1N1CCN(C(C)(C)C)CC1 [Example 1059, 1-(4-(5′-(4-(tert-butyl)piperazin-1-yl)-6′-ethyl-6-fluoro-3-hydroxy-[2,3′-bipyridin]-4-yl)-2-chlorophenyl)-3-methyl-1,3-dihydro-2H-imidazol-2-one]"
